ChEMBL document CHEMBL5584354, “Impact of Conjugation of the Reactive Oxygen Species (ROS)-Generating Catalytic Moiety with Membrane-Active Antimicrobial Peptoids: Promoting Multitarget Mechanism and Enhancing Selectivity” (J Med Chem, 2024)
≈ marks a conversion by molar mass, not a printed value. Calls of active or inactive are those of the source. No cut-off for these calls is given here. Non-standard residues stand in square brackets, D forms with d. Residues, ends and D or L forms follow the SMILES beside them. Gly(N(CH2)2(3-indolyl)) = O=C(O)CNCCc1c[nH]c2ccccc12; Nspe = C[C@H](NCC(=O)O)c1ccccc1; Nlys = NCCCCNCC(=O)O

Experiments:
[1] = test system: HaCaT; assay: Cytotoxicity against human HaCaT cells assessed as cell killing incubated for 24 hrs by MTS assay; format: toxicity, cell-based
[2] = test system: RAW264.7; assay: Cytotoxicity against mouse RAW264.7 cells assessed as cell killing incubated for 24 hrs by MTS assay; format: toxicity, cell-based; settings: raw264.7, 24 h
[3] = test system: Escherichia coli; assay: Antibacterial activity against carbapenem-resistant Escherichia coli NMS11035 harboring extended-spectrum beta-lactamase assessed as inhibition of bacterial growth incubated for 24 hrs by broth dilution method; format: functional
[4] = test system: Escherichia coli; assay: Antibacterial activity against colistin-resistant Escherichia coli NMS12 harboring extended-spectrum beta-lactamase assessed as inhibition of bacterial growth incubated for 24 hrs by broth dilution method; format: functional
[5] = test system: Klebsiella pneumoniae; assay: Antibacterial activity against carbapenem-resistant Klebsiella pneumoniae NMS118 harboring extended-spectrum beta-lactamase assessed as inhibition of bacterial growth incubated for 24 hrs by broth dilution method; format: functional
[6] = test system: Cell membrane; assay: Disruption of inner membrane in Escherichia coli ATCC 25922 assessed as increase in absorbance incubated for 1 hr by ONPG assay; format: cell membranes; settings: dose 0-25 µM
[7] = test system: Escherichia coli; assay: Induction of lipid peroxidation in Escherichia coli ATCC 25922 assessed as increase in green fluorescence at 12.5 uM incubated for 1 hrs by BODIPY 581/591 C11 dye based confocal microscopic analysis; format: functional, organism-based
[8] = test system: Escherichia coli; assay: Induction of lipid peroxidation in Escherichia coli ATCC 25922 at 12.5 uM incubated for 1 hrs by BODIPY 581/591 C11 dye based flow cytometry analysis; format: functional, organism-based
[9] = test system: Streptococcus pneumoniae; assay: Antibacterial activity against catalase-negative Streptococcus pneumoniae KCMM42691 assessed as inhibition of bacterial growth incubated for 24 hrs by broth dilution method; format: functional
[10] = test system: Streptococcus pneumoniae; assay: Antibacterial activity against catalase-negative Streptococcus pneumoniae KCMM42691 assessed as cell killing at 12.5 uM incubated for 4 to 16 hrs by CFU assay; format: functional, organism-based; settings: time 4-16 hrs
[11] = Cytotoxicity against mouse RAW264.7 cells assessed as cell viability at 10 uM incubated for 24 hrs by […] relative to control; format: toxicity, cell-based; settings: read-out: Activity
[12] = Cytotoxicity against mouse RAW264.7 cells assessed as cell viability at 20 uM incubated for 24 hrs by […] relative to control; format: toxicity, cell-based; settings: read-out: Activity
[13] = test system: RAW264.7; assay: Antiinflammatory activity in LPS-stimulated mouse RAW264.7 cells assessed as reduction in TNFalpha production at 10 uM incubated for 16 hrs by ELISA relative to control; format: functional; design: scale not given: the % may be the effect or the level left
[14] = test system: RAW264.7; assay: Antiinflammatory activity in LPS-stimulated mouse RAW264.7 cells assessed as reduction in IL-1beta production at 10 uM incubated for 16 hrs by ELISA relative to control; format: functional; design: scale not given: the % may be the effect or the level left
[15] = test system: RAW264.7; assay: Antiinflammatory activity in LPS-stimulated mouse RAW264.7 cells assessed as reduction in nitrite production at 10 uM incubated for 16 hrs by ELISA relative to control; format: functional; design: scale not given: the % may be the effect or the level left
[16] = test system: HEK-Blue hTLR7; assay: Inhibition of TLR4-mediated inflammatory signaling in LPS-stimulated HEK-Blue […] cells assessed as reduction in SEAP activity at 10 uM preincubated for 1 hr followed by LPS stimulation and measured after 16 hrs by ELISA relative to control; format: cell-based; settings: Homo sapiens, time 17.0 hrs
[17] = test system: HEK-Blue hTLR7; assay: Inhibition of TLR4-mediated inflammatory signaling in LPS-stimulated HEK-Blue […] cells assessed as reduction in SEAP activity at 20 uM preincubated for 1 hr followed by LPS stimulation and measured after 16 hrs by ELISA relative to control; format: cell-based; settings: Homo sapiens, time 17.0 hrs
[18] = test system: L929; assay: Cytotoxicity against mouse L929 cells assessed as reduction in cell viability at 3.1 to 25 uM incubated for 24 hrs by WST-8 assay; format: toxicity, cell-based; settings: l929, 24 h, dose 3.1-25 µM
[19] = test system: HEK293; assay: Cytotoxicity against HEK293 cells assessed as reduction in cell viability at 3.1 to 25 uM incubated for 24 hrs by WST-8 assay; format: toxicity, cell-based; settings: human, hek293, 24 h, dose 3.1-25 µM
[20] = Toxicity in female ICR mouse assessed as effect on creatinine level in serum at 5 mg/kg, ip administered four doses for 12 hrs and measured 24 hrs post last dose; format: organism-based; settings: in vivo, 36 h
[21] = Toxicity in female ICR mouse assessed as effect on blood urea nitrogen level at 5 mg/kg, ip administered four doses for 12 hrs and measured 24 hrs post last dose; format: organism-based; settings: in vivo, 36 h
[22] = Toxicity in female ICR mouse assessed as effect on ALT level in serum at 5 mg/kg, ip administered four doses for 12 hrs and measured 24 hrs post last dose; format: organism-based; settings: in vivo, 36 h
[23] = test system: Escherichia coli; assay: Antibacterial activity against Escherichia coli K1 infected in female ICR mouse model of septic shock assessed as increase in animal survival at 5 mg/kg, ip pretreated for 1 hr followed by bacteria addition and further treated with 3 doses of compound every 4 hrs and measured every hour for 36 hrs and every 6 hrs for 96 hrs; format: functional
[24] = test system: Escherichia coli; assay: (§1) Antibacterial activity against Escherichia coli K1 infected in female ICR mouse model of septic shock assessed as reduction in bacterial load in lung at 5 mg/kg, ip pretreated for 1 hr followed by bacteria addition and further treated with 3 doses of compound every 4 hrs; format: functional, organism-based; settings: time 9.0 hrs
[25] = test system: Escherichia coli; assay: Antibacterial activity against Escherichia coli K1 infected in female ICR mouse model of septic shock assessed as reduction in bacterial load in liver at 5 mg/kg, ip pretreated for 1 hr followed by bacteria addition and further treated with 3 doses of compound every 4 hrs; format: functional, organism-based; settings: time 9.0 hrs
[26] = test system: Escherichia coli; assay: Antibacterial activity against Escherichia coli K1 infected in female ICR mouse model of septic shock assessed as reduction in bacterial load in kidney at 5 mg/kg, ip pretreated for 1 hr followed by bacteria addition and further treated with 3 doses of compound every 4 hrs; format: functional, organism-based; settings: time 9.0 hrs
[27] = test system: Escherichia coli; assay: as §1, with “TNFalpha level” for “bacterial load”, “serum” for “lung”, “hrs by ELISA relative to control” for “hrs”; format: functional; design: scale not given: the % may be the effect or the level left; settings: time 9 hrs
[28] = test system: Escherichia coli; assay: (§2) Antibacterial activity against Escherichia coli K1 infected in female ICR mouse model of septic shock assessed as reduction in IL-6 level in serum at 5 mg/kg, ip pretreated for 1 hr followed by bacteria addition and further treated with 3 doses of compound every 4 hrs by ELISA relative to control; format: functional; design: scale not given: the % may be the effect or the level left; settings: time 9 hrs
[29] = test system: Escherichia coli; assay: as §2, with “IL-1beta” for “IL-6”; format: functional; design: scale not given: the % may be the effect or the level left; settings: time 9 hrs
[30] = test system: Escherichia coli; assay: Antibacterial activity against Escherichia coli K1 infected in female ICR mouse model of septic shock assessed as reduction in ALT level in serum at 5 mg/kg, ip pretreated for 1 hr followed by bacteria addition and further treated with 3 doses of compound every 4 hrs relative to control; format: functional; design: scale not given: the % may be the effect or the level left; settings: time 9 hrs
[31] = test system: Escherichia coli; assay: Antibacterial activity against Escherichia coli K1 infected in female ICR mouse model of septic shock assessed as creatinine level in serum at 5 mg/kg, ip pretreated for 1 hr followed by bacteria addition and further treated with 3 doses of compound every 4 hrs (reference value: 57.3%); format: functional; settings: time 9 hrs
[32] = Toxicity in female ICR mouse infected with Escherichia coli K1 assessed as lung injury at 5 mg/kg, ip pretreated for 1 hr followed by bacteria addition and further treated with 3 doses of compound every 4 hrs; format: organism-based; settings: in vivo, 9 h
[33] = test system: Escherichia coli; assay: as §1, with “pulmonary congestion” for “bacterial load”, “hrs by H and E staining based light microscopic analysis” for “hrs”; format: functional, organism-based; settings: time 9.0 hrs

## C[C@@H](c1ccccc1)N(CC(=O)N(CCCCN)CC(=O)N(CCc1c[nH]c2ccccc12)CC(=O)N(CCc1c[nH]c2ccccc12)CC(N)=O)C(=O)CN(CCCCN)C(=O)CN(CCCCN)C(=O)CN(C(=O)CN(C(=O)CN(CCCCN)C(=O)CN(C(=O)CN(C(=O)CN(CCCCN)C(=O)[C@H](Cc1c[nH]cn1)NC(=O)CNC(=O)CN)[C@@H](C)c1ccccc1)[C@@H](C)c1ccccc1)[C@@H](C)c1ccccc1)[C@@H](C)c1ccccc1 (H-GGH[Nlys][Nspe][Nspe][Nlys][Nspe][Nspe][Nlys][Nlys][Nspe][Nlys][Gly(N(CH2)2(3-indolyl))][Gly(N(CH2)2(3-indolyl))]-NH2)
[1]
  LC50: 110 µM
[2]
  LC50: 39.6 µM
[3]
  MIC: 12.5 µM (≈ 26.4 µg/mL)
[4]
  MIC: 12.5 µM (≈ 26.4 µg/mL)
[5]
  MIC: > 25 µM
[6]
  Activity: Dose-Dependent Effect
[7]
  Activity: Active
[8]
  Activity: Active
[9]
  MBC: 12.5 µM (≈ 26.4 µg/mL)
  MIC: 6.3 µM (≈ 13.3 µg/mL)
[10]
  Activity: Active
[11]
  viability at 24 h, 10 µM: 94.5%
[12]
  viability at 24 h, 20 µM: 74.1%
[13]
  Activity: 32.5%
[14]
  Activity: 36%
[15]
  Activity: 80.9%
[16]
  inhibition: 49.7%
[17]
  inhibition: 84.3%
[18]
  Activity: Non-Toxic
[19]
  Activity: Non-Toxic
[20]
  Activity: Non-Toxic
[21]
  Activity: Non-Toxic
[22]
  Activity: Non-Toxic
[23]
  survival at 5 mg/kg: 60%
[24]
  Activity: Active
[25]
  Activity: Active
[26]
  Activity: Active
[27]
  Activity: 46.6%
[28]
  Activity: 42.8%
[29]
  Activity: 48.3%
[30]
  Activity: 51.1%
[31]
  Activity: 32.8%
[32]
  Activity: Non-Toxic
[33]
  Activity: Active
